{"source": "patent US20260335468A1", "about": "“MOLECULAR RADIOAFTERGLOW PROBES FOR CANCER RADIODYNAMIC THERANOSTICS” (NANYANG TECHNOLOGICAL UNIVERSITY, priority 2023, published 2026)", "key": {"[1]": {"test": "O2·^− detection with DHR123 upon X-ray irradiation", "assay_type": "physicochemical", "conditions": "elevated radiation dosage", "description": "To study other ROS generation, fluorescence sensors DHR123 (for O2·^− detection) and HPF (for ·OH detection) were used. For O2·^− detection, DHR123 (10 PM) was added to a solution of IDPASu (10 M) in PBS (0.01 M pH 7.4, 50% DMSO), followed by X-ray irradiation at different doses of 5 mGy (250 μGy s^−1 for 20 s) and 2 Gy (100 mGy s^1 for 20 s). The fluorescence changes in DHR123 were recorded at λex of 505 nm and λem of 534 nm. For ·OH detection, HPF ([…]) was added in a solution of IDPASu (10 M) in PBS (0.01 M, pH 7.4, 50% DMF), followed by X-ray irradiation at different doses, namely, 5 mGy (250 μGy s^−1 for 20 s) and 2 Gy (100 mGy s^−1 for 20 s). The fluorescence changes in HPF were collected at ex of 450 nm and λem of 515 nm. The ROS production was calculated by the corresponding standard curve."}, "[2]": {"test": "X-ray-induced NIR afterglow properties (Table 3)", "conditions": "X-ray 0.005 Gy", "from_the_text": "To enable radio afterglow for organic molecules, we proposed a radiodynamic approach based on organic luminophores (DPAs and IDPAs) that were able to harvest X-ray energy for an in situ cycloaddition reaction to form self-luminescent chemical defects (FIG. 4b). This is mechanistically different from inorganic nanophosphors wherein the host materials (for example, fluoride and aluminosilicate) absorb X-rays, lattice defects delay excitons, and rare-earth/transition metal ion dopants (for example, Nd^3+ and Eu^3+) emit light (Richard, C. & Viana, B., Light.: Sci. Appl. 2022, 11, 123). Because of the presence of heavy atoms (iodine), IDPAs had higher radiodynamic ^1O2 generation and stronger radio afterglow emission than the iodine-free counterpart (DPAs). The radio afterglow dynamic processes of IDPAs were inducible even at a tissue depth of 15 cm, which was impossible when using light."}, "[3]": {"test": "Cell viability of U87 cells with IDPASu (Cell Counting Kit-8)", "assay_type": "cell-based, human", "conditions": "human, u87 cells; 100 μM; read-out: cell viability without X-ray", "description": "(§1) All the cells were purchased from the American Type Culture Collection, including CatB-negative cells (mouse embryonic fibroblasts 3T3 cells, RAW 264.7, 293-T and human monocytic THP-1 cells) and CatB-positive cells (human U87 glioblastoma cells, U87-luciferase cells, A549 lung epithelial cells and 4T1 and melanoma B16-F10). All the cells were cultured\n(§2) in Dulbecco's modified Eagle medium (Gibco) or RPMI 1640 medium containing 10.0% foetal bovine serum (Gibco) and 0.1% ciprofloxacin in a humidified atmosphere containing 5.0% CO2 and 95.0% air at 37° C. To study the cell viability of IDPASu, U87 cells (1×10^4 per well) were seeded on 96-well plates and incubated for 24 h. IDPASu at different concentrations (0, 2.5, 5.0, 10.0, 25.0, 50.0 and 100.0 μM) were added to the U87 cell medium for 12 h incubation. After incubation, 96-well plates were covered with chicken breast tissues with different thicknesses (0, 5, 8 and 15 cm), followed by X-ray irradiation. The X-ray setup was optimized to ensure the cells in all the wells received similar dose of X-ray irradiation (2 Gy) before chicken breast tissue coverage (0 cm). After irradiation, the cells were further incubated for 12 h, followed by the colorimetric Cell Counting Kit-8 assay. Briefly, Cell Counting Kit-8 solution (10 l, Dojindo Molecular Technologies) was added into the cell medium (100 l) for 2 h incubation, and the absorbance of medium at 450 nm was recorded using a microplate reader (ReadMax 1900). The cells without IDPASu incubation and X-ray irradiation were set as control. The cell viability (%) was calculated by the absorbance of treated cells over that of the control cells. To test the cell viability of activatable MRAP, U87 and 3T3 cells (1×10^4 per well) were seeded on 96-well plates and incubated for 24 h. The inhibitor group was pre-treated with a CatB inhibitor (CA-074, 1 mM) for 10 h incubation. MRAP at different concentrations (0, 2.5, 5.0, 10.0, 25.0, 50.0 and 100.0 µM) were added to the U87 and 3T3 cell medium for 12 h incubation. […]"}, "U87 cells": {"test_system": "U87 cells", "test": "Cell viability of U87 cells with IDPASu (Cell Counting Kit-8)", "assay_type": "cell-based, human", "description": "as §1, §2"}, "[4]": {"test": "^1O2 generation at tissue depth (X-ray or light through chicken breast tissue)", "assay_type": "physicochemical", "description": "To study ^1O2 generation, a mixture of DPAS or IDPAS (100 M) and TEMP (10 mM) in PBS (0.01 M, pH 7.4, 50% DMSO) was irradiated by X-rays at 2 Gy (100 mGy s^−1 for 20 s) or 5 mGy (250 μGy s^−1 for 20 s). The ESR signals of the mixture were recorded with a Bruker A300 instrument. The ESR signal of the free radical 2,2,6,6-tetramethyl-1-piperidinyloxyl (g=2.0060) was generated by the reaction of ^1O2 with TEMP. The ^1O2 quencher NaN3 (1 mM) was added to validate the afterglow mechanism of IDPASu. Additionally, other commercially available radio sensitizers (such as acridine orange, hematoporphyrin and verteporfin) were measured and compared. The procedure of block depths was similar to that of the tissue penetration depth study and the ^1O2 generation for different depth tissues was measured. The ESR signal changes of MRAP in the absence or presence of CatB were measured in a similar way. The ESR signals of 2,2,6,6-tetramethyl-1-piperidinyloxyl from the reaction of ^1O2 with TEMP were plotted as a function of the concentration of ^1O2, which was generated by the addition of NaOCl to H2O2. This generated the standard curve between the ESR intensity and ^1O2 concentration.\nThe deep-tissue radiodynamic process of IDPASu was tested by measuring ^1O2 generation at different tissue depths and compared with photosensitization (FIG. 11c)."}}, "data": [{"smiles": "COC(=C1C2CC3CC(C2)CC1C3)c1cc(O)c(I)cc1/C=C/C1=CC(=C(C#N)C#N)c2ccccc2S1", "note": "[IDPASu]", "values": [{"measurement": "O2·^− generation", "setting": "[1]", "result": "only minimal O2·^− could be generated"}, {"measurement": "afterglow half-life", "setting": "[2]", "result": 18.4, "unit": "min"}, {"measurement": "afterglow life-time", "setting": "[2]", "result": 25, "unit": "h"}, {"measurement": "λem", "setting": "[2]", "result": "~773", "unit": "nm"}, {"measurement": "viability at 24 h, 100 µM", "setting": "[3]", "result": 91, "unit": "%"}, {"measurement": "cell viability under X-ray irradiation", "setting": "U87 cells; 100 μM, X-ray 2 Gy, 100 mGy s^−1 for 20 s, no tissue", "result": 1.4, "unit": "%"}, {"measurement": "cell viability under X-ray irradiation at tissue depth of 15 cm", "setting": "U87 cells; X-ray through 15 cm chicken breast tissue", "result": 31.9, "unit": "%"}, {"measurement": "decrease of ^1O2 concentration at tissue depth of 1 cm, X-ray", "setting": "[4]; X-ray through 1 cm tissue", "result": "~ 30%"}, {"measurement": "radiodynamic ^1O2 generation at tissue depth of 15 cm", "setting": "[4]; X-ray through 15 cm tissue", "result": "still inducible"}, {"measurement": "^1O2 generation at tissue depth of 1 cm, light irradiation", "setting": "[4]; light through 1 cm tissue", "result": "close to the background"}]}]}
